Data: the NIST ThermoML archive (doi:10.1021/je201130h)
Numbers after ± are expanded uncertainties.

conditions: 298.15 K; 101.33 kPa; Liquid; Vibrating tube method

Row | SMILES | mass density [kg/m3]
1 | Cc1ccccc1C [1,2-dimethylbenzene] | 875.52 ± 0.23
2 | Cc1ccc(C)cc1 [1,4-dimethylbenzene] | 856.65 ± 0.23
3 | CC(=O)CC(C)C [4-methylpentan-2-one] | 798.09 ± 0.24
4 | C=CC(=O)O [propenoic acid] | 1059.17 ± 0.32
5 | Cc1ccccc1 [toluene] | 862.34 ± 0.23
